In patent US20080312435A1, “Imine Compound” (TAISHO PHARMACEUTICAL CO., LTD., priority 2004, published 2008) one finds IC50 and melting point data, which are given here for 49 compounds.

Data set [1] concerns the target T1, human CB1 receptor (Homo sapiens, UniProt P21554).
T1 construct: expressed in transfected cells
The experiment in a line: Human CB1 receptor binding inhibition test. The conditions noted are these: CHO-DHFR(−) cells stably expressing human CB1 receptor, same manner as Experimental Example 1. As to the method:
Human CB1 Receptor Binding Inhibition Test
The CHO-DHFR(−) cells capable of stably expressing a CB1 receptor were prepared in the same manner as in Experimental Example 1. The binding test to the human CB1 receptor was performed to obtain 50% inhibitory concentration (IC50 value) of a test compound.

The target in data set [2] is T2, human CB2 receptor (Homo sapiens, UniProt P34972).
T2 construct: expressed in transfected cells
Description: Human CB2 receptor binding inhibition test ([3H]CP-55,940, CHO membrane fractions). The conditions noted are these: [3H]CP-55,940, membrane fractions of CHO cells stably expressing human CB2 receptor, 25° C., 2 hours; read-out: CB2 IC50 (Inhibition of binding to human CB2 receptor). An outline of the steps: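 Membranes from CHO-DHFR(−) cells stably expressing human CB2 used for [3H]CP-55,940 binding; filter-bound radioactivity counted by scintillation after washes with 0.1% BSA buffer. Nonspecific binding defined with 2.0 μM CP-55,940; IC50 for inhibition of specific binding.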

T2 sequence (P34972 whole entry): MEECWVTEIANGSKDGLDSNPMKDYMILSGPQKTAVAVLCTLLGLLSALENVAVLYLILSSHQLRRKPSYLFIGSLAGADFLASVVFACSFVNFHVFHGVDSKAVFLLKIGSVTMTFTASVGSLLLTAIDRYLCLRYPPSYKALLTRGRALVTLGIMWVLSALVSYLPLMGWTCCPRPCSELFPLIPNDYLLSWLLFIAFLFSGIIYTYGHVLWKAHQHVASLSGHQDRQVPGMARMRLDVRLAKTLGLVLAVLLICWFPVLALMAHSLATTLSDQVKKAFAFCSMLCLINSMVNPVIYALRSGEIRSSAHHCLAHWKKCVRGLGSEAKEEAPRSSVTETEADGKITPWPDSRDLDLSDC
T1 sequence (P21554 whole entry): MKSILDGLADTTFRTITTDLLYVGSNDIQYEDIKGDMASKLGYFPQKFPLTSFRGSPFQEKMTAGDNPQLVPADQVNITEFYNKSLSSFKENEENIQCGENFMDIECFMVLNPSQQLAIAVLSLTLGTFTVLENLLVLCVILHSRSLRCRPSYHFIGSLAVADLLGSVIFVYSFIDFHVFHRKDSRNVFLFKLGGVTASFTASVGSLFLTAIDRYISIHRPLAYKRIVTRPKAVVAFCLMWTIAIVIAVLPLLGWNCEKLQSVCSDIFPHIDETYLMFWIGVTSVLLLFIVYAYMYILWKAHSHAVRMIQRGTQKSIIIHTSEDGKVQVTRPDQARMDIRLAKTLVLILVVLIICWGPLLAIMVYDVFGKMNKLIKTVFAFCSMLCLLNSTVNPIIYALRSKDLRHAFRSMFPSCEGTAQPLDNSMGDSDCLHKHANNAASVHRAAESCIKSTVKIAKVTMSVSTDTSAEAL

The IC50 is the point on the concentration scale where inhibition reaches its midpoint. A word on the melting point: it is the temperature, or range, at which the solid turns liquid. In turn, `CC(C)(C)c1c/c(=N\C(=O)c2cccc(C(F)(F)F)c2F)n(CC2CC2)s1` [compound 56] had a melting point of 85 to 87 °C. The compound further came in with an IC50 in data set [1] of 294 nM. In addition, the IC50 in data set [2] was 0.8 nM.

For the compound `COCCn1c(C)c(C)s/c1=N\C(=O)c1cccc(C(F)(F)F)c1F` [compound 104], the melting point is 182 to 183 °C. The compound also returned a half-maximal inhibitory concentration (IC50) in data set [1] of 327 nM. For the same compound, the IC50 in data set [2] was 1.7 nM.

`CCOCCn1c(C)c(C)s/c1=N\C(=O)c1cccc(C(F)(F)F)c1F` [compound 107] displayed a melting point of 147 to 148 °C. The IC50 in data set [1] was found to be 18 nM. The IC50 in data set [2] was determined as 0.5 nM.

Turning to `CCOCCn1c(C)c(C(C)C)s/c1=N\C(=O)c1cccc(C(F)(F)F)c1F` [compound 115], the melting point is 96 to 97 °C. In data set [1], this compound had an IC50 of 25 nM. In addition, the IC50 in data set [2] came to 0.5 nM.

With `Cc1ccccc1C(=O)/N=c1\sc(C(C)(C)C)c(C)n1CC1CC1` [compound 180], the IC50 in data set [1] came to 395 nM; in data set [2], 1 nM.

On to `CCc1ccccc1C(=O)/N=c1\sc(C(C)(C)C)c(C)n1CC1CC1` [compound 181], for which the melting point is 120 to 122 °C. For the same compound, the IC50 in data set [1] worked out at 115 nM. Besides, the IC50 in data set [2] turned out to be 0.8 nM.

The compound `Cc1c(C(C)(C)C)s/c(=N\C(=O)c2ccccc2C(C)C)n1CC1CC1` [compound 182] displayed a melting point of 168 to 169 °C. In addition, the IC50 in data set [1] was found to be 22 nM. The IC50 in data set [2] was 0.3 nM.

For `Cc1c(C(C)(C)C)s/c(=N\C(=O)c2ccccc2C(F)(F)F)n1CC1CC1` [compound 183], the melting point fell in the range of 90 to 91 °C. The 50% inhibitory concentration (IC50) in data set [1] came out at 138 nM. The IC50 in data set [2] is 0.5 nM.

Consider `Cc1c(C(C)(C)C)s/c(=N\C(=O)c2ccccc2Cl)n1CC1CC1` [compound 186], for which the IC50 in data set [1] was 271 nM; in data set [2], 1.7 nM.

`Cc1c(C(C)(C)C)s/c(=N\C(=O)c2ccccc2Br)n1CC1CC1` [compound 189]: the values for the IC50 in data set [1] and in data set [2] were 212 nM and 1.5 nM, respectively.

With `Cc1c(C(C)(C)C)s/c(=N\C(=O)c2ccccc2I)n1CC1CC1` [compound 191], the results for the IC50 in data set [1] and in data set [2] were 193 nM and 0.7 nM, respectively.

As to `Cc1c(C(C)(C)C)s/c(=N\C(=O)c2ccccc2N2CCOCC2)n1CC1CC1` [compound 206], the results for the half-maximal inhibitory concentration (IC50) in data set [1] and in data set [2] were 460 nM and 5.7 nM, respectively.

Consider `Cc1cccc(C(=O)/N=c2\sc(C(C)(C)C)c(C)n2CC2CC2)c1C` [compound 215], for which the melting point is 97 to 98 °C. Also, the IC50 in data set [1] worked out at 61 nM. The IC50 in data set [2] was determined as 1.1 nM.

`Cc1c(C(C)(C)C)s/c(=N\C(=O)c2c(F)cccc2F)n1CC1CC1` [compound 223] came in with a melting point of 123 to 124 °C. This compound had an IC50 in data set [1] of 168 nM. Besides, in data set [2], the IC50 came to 2 nM.

`Cc1c(C(C)(C)C)s/c(=N\C(=O)c2cc(F)ccc2Br)n1CC1CC1` [compound 228] displayed a melting point of 92 to 94 °C. The same compound returned an IC50 in data set [1] of 228 nM. Further, the IC50 in data set [2] is 0.5 nM.

For the compound `Cc1c(C(C)(C)C)s/c(=N\C(=O)c2ccc(F)cc2Br)n1CC1CC1` [compound 229], the melting point was in the range of 126 to 128 °C. The IC50 in data set [1] was 263 nM. For the same compound, the IC50 in data set [2] was determined as 1 nM.

Take `Cc1c(C(C)(C)C)s/c(=N\C(=O)c2cc(Cl)ccc2Cl)n1CC1CC1` [compound 232]: the melting point lay in the range of 129 to 131 °C. In data set [1], this compound came in with an IC50 of 211 nM. Besides, in data set [2], the IC50 worked out at 0.5 nM.

With `COc1ccc(C(=O)/N=c2\sc(C(C)(C)C)c(C)n2CC2CC2)c(OC)c1` [compound 236], the values for the IC50 in data set [1] and in data set [2] were 215 nM and 2 nM, respectively.

As to `Cc1ncccc1C(=O)/N=c1/sc(C(C)(C)C)c(C)n1CC1CC1` [compound 295], the IC50 in data set [1] amounted to 497 nM; in data set [2], 12.3 nM.

`Cc1nc(F)ccc1C(=O)/N=c1\sc(C(C)(C)C)c(C)n1CC1CC1` [compound 316] displayed a melting point of 67 to 69 °C. Besides, the IC50 in data set [2] stood at 5.3 nM.

Compound `Cc1c(C(C)(C)C)s/c(=N\C(=O)c2ccc([N+](=O)[O-])o2)n1CC1CC1` [compound 319] had a melting point of 129 to 130 °C. Besides, in data set [2], the concentration for half-maximal inhibition (IC50) is 18.6 nM.

For `Cc1c(C(C)(C)C)s/c(=N\C(=O)c2ccc3nonc3c2)n1CC1CC1` [compound 320], the melting point lay in the range of 139 to 141 °C. The IC50 in data set [2] stood at 6.2 nM.

`Cc1c(C(C)(C)C)s/c(=N\C(=O)c2cccc3cnccc23)n1CC1CC1` [compound 321]: the melting point is 109 to 110 °C. Besides, the IC50 in data set [2] was found to be 2.3 nM.

Compound `Cc1c(C(C)(C)C)s/c(=N\C(=O)c2cccc3cccnc23)n1CC1CC1` [compound 322] displayed a melting point of 193 to 195 °C. In addition, the IC50 in data set [2] is 5.6 nM.

As to `Cc1c(C(C)(C)C)s/c(=N\C(=O)c2nccc3ccccc23)n1CC1CC1` [compound 324], the 50% inhibitory concentration (IC50) in data set [1] was 353 nM; in data set [2], 2 nM.

The compound `Cc1c(C(C)(C)C)s/c(=N\C(=O)c2cnnc3ccccc23)n1CC1CC1` [compound 325] showed a melting point of 140 to 141 °C. For the same compound, the IC50 in data set [2] came out at 13 nM.

`Cc1c(C(C)(C)C)s/c(=N\C(=O)c2cc3sccc3nc2C(F)(F)F)n1CC1CC1` [compound 328] returned a melting point of 147 to 149 °C. Besides, the IC50 in data set [2] was determined as 11.8 nM.

As to `Cc1c(C(C)(C)C)s/c(=N\C(=O)C(C)(C)C)n1CC1CC1` [compound 330], the melting point lay within 102 to 104 °C. Moreover, in data set [2], the IC50 worked out at 13.8 nM.

For `Cc1c(C(C)(C)C)s/c(=N\C(=O)CCC(F)(F)F)n1CC1CC1` [compound 335], the melting point was 102 to 103 °C. Besides, in data set [2], the concentration for half-maximal inhibition (IC50) worked out at 5.5 nM.

In turn, `Cc1c(C(C)(C)C)s/c(=N\C(=O)C(F)(F)C(F)(F)C(F)(F)F)n1CC1CC1` [compound 336] came in with a melting point of 147 to 148 °C. Also, in data set [2], the IC50 amounted to 2.9 nM.

`COCCn1c(C)c(C(C)(C)C)s/c1=N\C(=O)C(F)(F)C(F)(F)C(F)(F)F` [compound 338] came in with a melting point of 69 to 71 °C. Besides, in data set [2], the IC50 is 9.1 nM.

In turn, `CC(=O)OC(C(=O)/N=c1\sc(C(C)(C)C)c(C)n1CC1CC1)c1ccccc1` (centres unmarked) [compound 341] gave a melting point of 147 to 148 °C. Moreover, the half-maximal inhibitory concentration (IC50) in data set [2] stood at 5.3 nM.

Regarding `COCCn1c(C)c(C(C)(C)C)s/c1=N\C(=O)c1cccc(C(F)(F)F)c1` [compound 344], the melting point fell in the range of 172 to 173 °C. In data set [2], the IC50 is 12.2 nM.

Compound `COCCn1c(C)c(C(C)(C)C)s/c1=N\C(=O)c1cccc(Br)c1` [compound 345] showed a melting point of 89 to 91 °C. Further, the IC50 in data set [2] came to 12.7 nM.

`COCCn1c(C)c(C(C)(C)C)s/c1=N\C(=O)c1cccc(I)c1` [compound 346] came in with a melting point of 119 to 121 °C. In addition, the IC50 in data set [2] was found to be 13.5 nM.

In turn, `COCCn1c(C)c(C(C)(C)C)s/c1=N\C(=O)c1cc(Br)ccc1F` [compound 348] returned a melting point of 95 to 97 °C. Also, the IC50 in data set [2] is 3.8 nM.

For the compound `COCCn1c(C)c(C(C)(C)C)s/c1=N\C(=O)c1cc(F)c(Cl)cc1Cl` [compound 349], the melting point was 161 to 163 °C. Also, the IC50 in data set [2] was found to be 1.9 nM.

In turn, `COCCn1c(C)c(C(C)(C)C)s/c1=N\C(=O)c1cccc(OC(F)(F)C(F)F)c1` [compound 350] registered a melting point of 114 to 116 °C. In data set [2], the IC50 stood at 5.2 nM.

`COCCn1c(C)c(C(C)(C)C)s/c1=N\C(=O)c1cc(F)ccc1C` [compound 351] gave a melting point of 106 to 107 °C. The IC50 in data set [2] came out at 2.2 nM.

Compound `Cc1c(Cl)s/c(=N\C(=O)c2cccc(C(F)(F)F)c2F)n1CC1CC1` [compound 365] showed a melting point of 130 to 132 °C. The IC50 in data set [2] came out at 3.4 nM.

The compound `O=C(/N=c1\sc2ncccc2n1CC1CC1)c1cccc(C(F)(F)F)c1F` [compound 382] yielded a melting point of 156 to 158 °C. For the same compound, the IC50 in data set [2] was 17 nM.

On to `Cn1c(C(C)(C)C)c/c(=N\C(=O)c2cccc(Cl)c2Cl)n1CC1CCC1` [compound 481], for which the melting point was 152.5 to 154 °C. The half-maximal inhibitory concentration (IC50) in data set [2] worked out at 3.4 nM.

In turn, `Cc1c(C(=O)/N=c2\cc(C(C)(C)C)n(C)n2CC2CCC2)cccc1C(F)(F)F` [compound 483] yielded a melting point of 133 to 134 °C. The IC50 in data set [2] came to 8.3 nM.

`Cn1c(C(C)(C)C)c/c(=N\C(=O)c2cccc(Cl)c2Cl)n1CC1CCCC1` [compound 484] had a melting point of 168 to 169 °C. The IC50 in data set [2] stood at 2.7 nM.

Turning to `CCOCCn1/c(=N/C(=O)c2cccc(C(F)(F)F)c2C)cc(C(C)(C)C)n1C` [compound 489], the melting point was in the range of 132 to 133 °C. In addition, the IC50 in data set [2] was 6 nM.

Turning to `CC(C)OCCn1/c(=N/C(=O)c2cccc(Cl)c2Cl)cc(C(C)(C)C)n1C` [compound 492], the IC50 in data set [1] worked out at 265 nM; in data set [2], 5 nM.

Consider `Cc1c(C(=O)/N=c2\cc(C(C)(C)C)n(C)n2CCOC(C)C)cccc1C(F)(F)F` [compound 494], for which the figures for the half-inhibitory concentration (IC50) in data set [1] and in data set [2] were 279 nM and 2.1 nM, respectively.

Compound `COc1ccc(C(F)(F)F)cc1C(=O)/N=c1\sc(C(C)(C)C)nn1CC1CC1` [compound 509] yielded a melting point of 82 to 83 °C. Besides, the IC50 in data set [2] was determined as 5.9 nM.

Consider `CC(C)(C)c1nn(CC2CC2)/c(=N/C(=O)c2cccc(C(F)(F)F)c2F)o1` [compound 514], for which the melting point was in the range of 108 to 110 °C. For the same compound, the IC50 in data set [2] was 2.6 nM.
